“And” between values parts separate entries of the source, which are not always exact repeats. Equal values may be shown once.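 Compound exposure: 48 hours, 5 concentrations, 96-well plates. GI50 marks 50% less growth. TGI denotes the concentration required for complete inhibition of growth.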
Assays:
Test in all cases: growth of human tumour cells (NCI), 48 h
[1] = system: OVCAR-5 ovarian
[2] = system: IGROV1 ovarian
[3] = system: HOP-62 NSCLC
[4] = system: OVCAR-3 ovarian
[5] = system: COLO 205 colon
[6] = system: SF-295 CNS
[7] = system: OVCAR-8 ovarian
[8] = system: HCT-116 colon
[9] = system: UO-31 renal
[10] = system: BT-549 breast

Compound: O=C1Nc2ccccc2/C1=C1\CCc2cc(O)ccc21
- GI50 [1]: 16.1 µM
- TGI [1]: > 25 µM
- GI50 [2]: 7.63 µM
- TGI [2]: > 25 µM
- GI50 [3]: 9.95 µM
- TGI [3]: > 25 µM
- GI50 [4]: 9.95 µM
- TGI [4]: > 25 µM
- GI50 [5]: 12.4 µM
- TGI [5]: > 25 µM
- GI50 [6]: 11.3 µM
- TGI [6]: > 25 µM
- GI50 [7]: 10.4 µM
- TGI [7]: > 25 µM
- GI50 [8]: 8.79 µM
- TGI [8]: > 25 µM
- GI50 [9]: 1.67 µM
- TGI [9]: > 23.9 µM
- GI50 [10]: 8.47 µM
- TGI [10]: > 24.2 µM

Compound: COC(=O)C1=COC(C)C2CN3CCc4c([nH]c5ccccc45)C3CC12 (stereo not drawn)
- TGI [1]: > 100 µM
- GI50 [2]: 22.1 µM and > 100 µM
- TGI [2]: 80.2 µM and > 100 µM
- TGI [3]: > 100 µM
- GI50 [4]: 24.2 µM and > 100 µM
- TGI [4]: > 100 µM
- GI50 [5]: 18.2 µM and > 100 µM
- TGI [5]: 36.4 µM and > 100 µM
- GI50 [6]: 30.6 µM and 72.9 µM
- TGI [6]: > 100 µM
- GI50 [7]: 18.6 µM and > 100 µM
- TGI [7]: > 100 µM
- GI50 [8]: 19 µM and > 100 µM
- TGI [8]: 45.4 µM and > 100 µM
- GI50 [9]: 20.8 µM and > 100 µM
- TGI [9]: > 100 µM
- GI50 [10]: 28 µM and > 100 µM
- TGI [10]: > 100 µM

Compound: COc1cc(/C=C\c2cc(OC)c(OC)c(OC)c2)cc(N/C=C\C(=O)c2c[nH]c3ccccc23)c1OC
- GI50 [1]: 2.45 µM
- TGI [1]: 7.03 µM
- GI50 [2]: 1.23 µM
- TGI [2]: 3.56 µM
- GI50 [3]: 11.6 µM
- TGI [3]: 28.1 µM
- GI50 [4]: 1.72 µM
- TGI [4]: 3.21 µM
- GI50 [5]: 1.51 µM
- TGI [5]: 3.2 µM
- GI50 [6]: 7.94 µM
- TGI [6]: 22.9 µM
- GI50 [7]: 3.33 µM
- TGI [7]: 13.3 µM
- GI50 [8]: 1.76 µM
- TGI [8]: 3.49 µM
- GI50 [9]: 0.326 µM
- TGI [9]: 2.05 µM
- GI50 [10]: 1.64 µM
- TGI [10]: 3.38 µM

Compound: CCCC/C(=C\C1=C(C)C(=O)C(OC)=C(OC)C1=O)C(=O)O
- GI50 [1]: > 100 µM
- TGI [1]: > 100 µM
- GI50 [2]: > 100 µM
- TGI [2]: > 100 µM
- GI50 [3]: > 100 µM
- TGI [3]: > 100 µM
- GI50 [4]: > 100 µM
- TGI [4]: > 100 µM
- GI50 [5]: > 100 µM
- TGI [5]: > 100 µM
- GI50 [6]: > 100 µM
- TGI [6]: > 100 µM
- GI50 [7]: > 100 µM
- TGI [7]: > 100 µM
- GI50 [8]: > 100 µM
- TGI [8]: > 100 µM
- GI50 [9]: > 100 µM
- TGI [9]: > 100 µM
- GI50 [10]: > 100 µM
- TGI [10]: > 100 µM

Compound: COc1ccc(C(CC(=O)c2ccc3c(c2)OCO3)c2c(O)c3ccccc3oc2=O)cc1OC (stereo not drawn)
- TGI [1]: > 100 µM
- TGI [2]: > 100 µM
- TGI [3]: > 100 µM
- TGI [4]: > 100 µM
- TGI [5]: > 100 µM
- TGI [6]: > 100 µM
- TGI [7]: > 100 µM
- TGI [8]: > 100 µM
- TGI [9]: > 100 µM
- TGI [10]: > 100 µM

Compound: Nc1ccccc1O.O.O=C(O)C1[O][Sb][O]C1C(=O)O (stereo not drawn)
- GI50 [1]: 18.4 µM
- TGI [1]: 38.5 µM
- GI50 [2]: 17.6 µM
- TGI [2]: 33.2 µM
- GI50 [3]: 17.6 µM
- TGI [3]: 35 µM
- GI50 [4]: 13.4 µM
- TGI [4]: 28.6 µM
- GI50 [5]: 18.7 µM
- TGI [5]: 35.3 µM
- GI50 [6]: 39.9 µM
- TGI [6]: > 100 µM
- GI50 [7]: 14.9 µM
- TGI [7]: 32.9 µM
- GI50 [8]: 17.8 µM
- TGI [8]: 39.6 µM
- GI50 [9]: 9.34 µM
- TGI [9]: 24.5 µM
- GI50 [10]: 14.9 µM
- TGI [10]: 30.6 µM

Compound: O=C(Nc1cc(Nc2ncccc2-c2ncnc3nc[nH]c23)ccc1F)c1cc(C(F)(F)F)cc(C(F)(F)F)c1
- GI50 [1]: 0.868 µM
- TGI [1]: 2.98 µM
- GI50 [2]: 1.63 µM
- TGI [2]: 7.2 µM
- GI50 [3]: 1.15 µM
- TGI [3]: > 10 µM
- GI50 [4]: 2.67 µM
- TGI [4]: 6.69 µM
- GI50 [5]: 0.39 µM
- TGI [5]: 2.2 µM
- GI50 [6]: 1.73 µM
- TGI [6]: 4.01 µM
- GI50 [7]: 3.67 µM
- TGI [7]: > 10 µM
- GI50 [8]: 0.601 µM
- TGI [8]: 2.72 µM
- GI50 [9]: 0.319 µM
- TGI [9]: 1.99 µM
- GI50 [10]: 2.87 µM
- TGI [10]: 6.54 µM

Compound: N[C@H](CCC(=O)N[C@@H](Cc1c[nH]c2ccccc12)C(=O)O)C(=O)O
- GI50 [1]: > 100 µM
- TGI [1]: > 100 µM
- GI50 [2]: > 100 µM
- TGI [2]: > 100 µM
- GI50 [3]: > 100 µM
- TGI [3]: > 100 µM
- GI50 [4]: > 100 µM
- TGI [4]: > 100 µM
- GI50 [5]: > 100 µM
- TGI [5]: > 100 µM
- GI50 [6]: > 100 µM
- TGI [6]: > 100 µM
- GI50 [7]: > 100 µM
- TGI [7]: > 100 µM
- GI50 [8]: > 100 µM
- TGI [8]: > 100 µM
- GI50 [9]: > 100 µM
- TGI [9]: > 100 µM
- GI50 [10]: > 100 µM
- TGI [10]: > 100 µM

Compound: O=C(O)c1cccc(COc2ccc([N+](=O)[O-])cc2Cl)c1
- GI50 [1]: > 100 µM
- TGI [1]: > 100 µM
- GI50 [2]: 74.6 µM
- TGI [2]: > 100 µM
- GI50 [3]: > 100 µM
- TGI [3]: > 100 µM
- GI50 [4]: 50.3 µM
- TGI [4]: > 100 µM
- GI50 [5]: > 100 µM
- TGI [5]: > 100 µM
- GI50 [6]: > 100 µM
- TGI [6]: > 100 µM
- GI50 [7]: 86.4 µM
- TGI [7]: > 100 µM
- GI50 [8]: > 100 µM
- TGI [8]: > 100 µM
- GI50 [9]: > 100 µM
- TGI [9]: > 100 µM
- GI50 [10]: 53.4 µM
- TGI [10]: > 100 µM

Compound: ClCCN(CCCl)c1ccc(CNc2ccccc2)cc1
- GI50 [1]: 25.8 µM
- TGI [1]: > 100 µM
- GI50 [2]: 16 µM
- TGI [2]: > 100 µM
- GI50 [3]: 6.32 µM
- TGI [3]: > 100 µM
- GI50 [4]: 15.2 µM
- TGI [4]: > 100 µM
- GI50 [5]: 20.8 µM
- TGI [5]: > 100 µM
- GI50 [6]: 3.16 µM
- TGI [6]: > 100 µM
- GI50 [7]: 6.34 µM
- TGI [7]: > 100 µM
- GI50 [8]: 9.67 µM
- TGI [8]: > 100 µM
- GI50 [9]: 4.86 µM
- TGI [9]: 42.3 µM
- GI50 [10]: 7.2 µM
- TGI [10]: 43 µM

Compound: O=C(c1ccco1)c1c(C(F)(F)F)n([O-])c2ccc(C(F)(F)F)cc2[n+]1=O
- GI50 [1]: 0.38 µM
- TGI [1]: 1.38 µM
- GI50 [2]: 0.368 µM
- TGI [2]: 1.48 µM
- GI50 [3]: 1.47 µM
- TGI [3]: 2.95 µM
- GI50 [4]: 0.383 µM
- TGI [4]: 0.835 µM
- GI50 [5]: 0.468 µM
- TGI [5]: 0.987 µM
- GI50 [6]: 0.626 µM
- TGI [6]: 1.71 µM
- GI50 [7]: 0.31 µM
- TGI [7]: 1.15 µM
- GI50 [8]: 0.147 µM
- TGI [8]: 0.279 µM
- GI50 [9]: 0.205 µM
- TGI [9]: 0.439 µM
- GI50 [10]: 0.177 µM
- TGI [10]: 0.339 µM

Compound: Cc1cc(Nc2nc(-c3cn(-c4ccc(Cl)cc4)nn3)nc3ccccc23)n[nH]1
- GI50 [1]: > 50 µM
- TGI [1]: > 50 µM
- GI50 [2]: 9.16 µM
- TGI [2]: > 50 µM
- GI50 [3]: 14 µM
- TGI [3]: > 50 µM
- GI50 [4]: 10.5 µM
- TGI [4]: 23.4 µM
- GI50 [5]: 38.2 µM
- TGI [5]: > 50 µM
- GI50 [6]: 7.6 µM
- TGI [6]: 38.5 µM
- GI50 [7]: 18.5 µM
- TGI [7]: > 50 µM
- GI50 [8]: 7.64 µM
- TGI [8]: 25.4 µM
- GI50 [9]: 1.65 µM
- TGI [9]: 11.3 µM
- GI50 [10]: 15 µM
- TGI [10]: > 50 µM

Compound: Cc1cc(N/N=C/c2ccccn2)nc2ccccc12
- GI50 [1]: 0.542 µM
- TGI [1]: 18.5 µM
- GI50 [2]: 0.356 µM
- TGI [2]: 3.95 µM
- GI50 [3]: 0.331 µM
- TGI [3]: 5.06 µM
- GI50 [4]: 0.382 µM
- TGI [4]: 11 µM
- GI50 [5]: 0.367 µM
- TGI [5]: 12.4 µM
- GI50 [6]: 0.307 µM
- TGI [6]: 3.2 µM
- GI50 [7]: 0.381 µM
- TGI [7]: 16.6 µM
- GI50 [8]: 0.393 µM
- TGI [8]: 5.81 µM
- GI50 [9]: 0.286 µM
- TGI [9]: 2.29 µM
- GI50 [10]: 0.85 µM
- TGI [10]: 20.3 µM

— PubChem BioAssay (NCI)
